System: NIH3T3 cells
Experiment: MTS formazan dye reduction cytotoxicity/cell viability assay
Experimental: Standard cytotoxicity/cell viability assays were performed using the CellTiter-96 Aqueous one solution MTS cell proliferation assay (Promega Inc) and using the standard conditions detailed in the manufacturer's instructions.
In addition, we also wanted to ensure that the observations made using the LUCIA were not due to any effects on luciferase expression or on the luciferase assay itself. For this reason, we looked at the effect of adding wortmannin and LY294002 to NIH3T3 cells containing the already integrated R229-Luc provirus.

## O=c1cc(N2CCOCC2)oc2c(-c3ccccc3)cccc12 [LY294002]
mouse
  cellular cytotoxicity (percentage of viable cells remaining after drug treatment): slight cytotoxic effect at high concentrations

## COC[C@H]1OC(=O)c2coc3c2[C@@]1(C)C1=C(C3=O)[C@@H]2CCC(=O)[C@@]2(C)C[C@H]1OC(C)=O [wortmannin]
MTS assay, concentrations used in LUCIA, FIG. 4C
  cellular cytotoxicity (percentage of viable cells remaining after drug treatment): slight cytotoxic effect at high concentrations
